Molecular target: T1, ΔF508-CFTR (Homo sapiens, UniProt P13569, DEL508-508)
T1 construct: expressed in transfected cells; host or cells: NIH3T3 mouse fibroblasts stably expressing ΔF508-CFTR for the optical, whole-cell and single-channel assays; Fisher rat epithelial (FRT) cells for Ussing chamber follow-up
Test: Assays for ΔF508-CFTR correction and potentiator properties (membrane potential optical and electrophysiological methods)
Format: cell-based
Settings: CFTR modulation; for % Activity: % Efficacy; for EC50: tested using the above methods
Text: Assays for Detecting and Measuring ΔF508-CFTR Correction and Potentiator Properties of Compounds
A) Membrane Potential Optical Methods for Assaying ΔF508-CFTR Modulation Properties of Compounds
The optical membrane potential assay utilized voltage-sensitive FRET sensors described by Gonzalez and Tsien (See, Gonzales, J. E. and R. Y. Tsien (1995) “Voltage sensing by fluorescence resonance energy transfer in single cells” Biophys J 69 (4): 1272-80, and Gonzalez, J. E. and R. Y. Tsien (1997) “Improved indicators of cell membrane potential that use fluorescence resonance energy transfer” Chem Biol 4 (4): 269-77) in combination with instrumentation for measuring fluorescence changes such as the Voltage/Ion Probe Reader (VIPR) (See, Gonzalez, J. E., K. Oades, et al. (1999) “Cell-based assays and instrumentation for screening ion-channel targets” Drug Discov Today 4 (9): 431-439).
These voltage sensitive assays are based on the change in fluorescence resonant energy transfer (FRET) between the membrane-soluble, voltage-sensitive dye, DiSBAC2 (3), and a fluorescent phospholipid, CC2-DMPE, which is attached to the outer leaflet of the plasma membrane and acts as a FRET donor. Changes in membrane potential (Vm) cause the negatively charged DiSBAC2(3) to redistribute across the plasma membrane and the amount of energy transfer from CC2-DMPE changes accordingly. The changes in fluorescence emission were monitored using VIPR™ II, which is an integrated liquid handler and fluorescent detector designed to conduct cell-based screens in 96- or 384-well microtiter plates.
To identify small molecules that correct the trafficking defect associated with ΔF508-CFTR; a single-addition HTS assay format was developed. The cells were incubated in serum-free medium for 16 hrs at 37° C. in the presence or absence (negative control) of test compound. As a positive control, cells plated in 384-well plates were incubated for 16 hrs at 27° C. to “temperature-correct” ΔF508-CFTR. The cells were subsequently rinsed 3× with Krebs Ringers solution and loaded with the voltage-sensitive dyes. To activate ΔF508-CFTR, […] and the CFTR potentiator, genistein ([…]), were added along with Cl^−-free medium to each well. The addition of Cl^−-free medium promoted Cl^− efflux in response to ΔF508-CFTR activation and the resulting membrane depolarization was optically monitored using the FRET-based voltage-sensor dyes.
To identify potentiators of ΔF508-CFTR, a double-addition HTS assay format was developed. During the first addition, a Cl^−-free medium with or without test compound was added to each well. After 22 sec, a second addition of Cl^−-free medium containing 2-10 µM forskolin was added to activate ΔF508-CFTR. The extracellular Cl^− concentration following both additions was 28 mM, which promoted Cl^− efflux in response to ΔF508-CFTR activation and the resulting membrane depolarization was optically monitored using the FRET-based voltage-sensor dyes.
• Bath Solution #1: (in mM) NaCl 160, KCl 4.5, CaCl2 2, MgCl2 1, HEPES 10, pH 7.4 with NaOH. • Chloride-free bath solution: Chloride salts in Bath Solution #1 are substituted with gluconate salts. • CC2-DMPE: Prepared as a 10 mM stock solution in DMSO and stored at −20° C. • DiSBAC2(3): Prepared as a 10 mM stock in DMSO and stored at −20° C. Cell Culture
NIH3T3 mouse fibroblasts stably expressing ΔF508-CFTR are used for optical measurements of membrane potential. The cells are maintained at 37° C. in 5% CO2 and 90% humidity in Dulbecco's modified Eagle's medium supplemented with 2 mM glutamine, 10% fetal bovine serum, 1×NEAA, β-ME, 1×pen/strep, and 25 mM HEPES in 175 cm^2 culture flasks. For all optical assays, the cells were seeded at 30,000/well in 384-well matrigel-coated plates and cultured for 2 hrs at 37° C. before culturing at 27° C. for 24 hrs. for the potentiator assay. For the correction assays, the cells are cultured at 27° C. or 37° C. with and without compounds for 16-24 hours.

T1 sequence (P13569 with tags, fused parts or gaps DEL508-508): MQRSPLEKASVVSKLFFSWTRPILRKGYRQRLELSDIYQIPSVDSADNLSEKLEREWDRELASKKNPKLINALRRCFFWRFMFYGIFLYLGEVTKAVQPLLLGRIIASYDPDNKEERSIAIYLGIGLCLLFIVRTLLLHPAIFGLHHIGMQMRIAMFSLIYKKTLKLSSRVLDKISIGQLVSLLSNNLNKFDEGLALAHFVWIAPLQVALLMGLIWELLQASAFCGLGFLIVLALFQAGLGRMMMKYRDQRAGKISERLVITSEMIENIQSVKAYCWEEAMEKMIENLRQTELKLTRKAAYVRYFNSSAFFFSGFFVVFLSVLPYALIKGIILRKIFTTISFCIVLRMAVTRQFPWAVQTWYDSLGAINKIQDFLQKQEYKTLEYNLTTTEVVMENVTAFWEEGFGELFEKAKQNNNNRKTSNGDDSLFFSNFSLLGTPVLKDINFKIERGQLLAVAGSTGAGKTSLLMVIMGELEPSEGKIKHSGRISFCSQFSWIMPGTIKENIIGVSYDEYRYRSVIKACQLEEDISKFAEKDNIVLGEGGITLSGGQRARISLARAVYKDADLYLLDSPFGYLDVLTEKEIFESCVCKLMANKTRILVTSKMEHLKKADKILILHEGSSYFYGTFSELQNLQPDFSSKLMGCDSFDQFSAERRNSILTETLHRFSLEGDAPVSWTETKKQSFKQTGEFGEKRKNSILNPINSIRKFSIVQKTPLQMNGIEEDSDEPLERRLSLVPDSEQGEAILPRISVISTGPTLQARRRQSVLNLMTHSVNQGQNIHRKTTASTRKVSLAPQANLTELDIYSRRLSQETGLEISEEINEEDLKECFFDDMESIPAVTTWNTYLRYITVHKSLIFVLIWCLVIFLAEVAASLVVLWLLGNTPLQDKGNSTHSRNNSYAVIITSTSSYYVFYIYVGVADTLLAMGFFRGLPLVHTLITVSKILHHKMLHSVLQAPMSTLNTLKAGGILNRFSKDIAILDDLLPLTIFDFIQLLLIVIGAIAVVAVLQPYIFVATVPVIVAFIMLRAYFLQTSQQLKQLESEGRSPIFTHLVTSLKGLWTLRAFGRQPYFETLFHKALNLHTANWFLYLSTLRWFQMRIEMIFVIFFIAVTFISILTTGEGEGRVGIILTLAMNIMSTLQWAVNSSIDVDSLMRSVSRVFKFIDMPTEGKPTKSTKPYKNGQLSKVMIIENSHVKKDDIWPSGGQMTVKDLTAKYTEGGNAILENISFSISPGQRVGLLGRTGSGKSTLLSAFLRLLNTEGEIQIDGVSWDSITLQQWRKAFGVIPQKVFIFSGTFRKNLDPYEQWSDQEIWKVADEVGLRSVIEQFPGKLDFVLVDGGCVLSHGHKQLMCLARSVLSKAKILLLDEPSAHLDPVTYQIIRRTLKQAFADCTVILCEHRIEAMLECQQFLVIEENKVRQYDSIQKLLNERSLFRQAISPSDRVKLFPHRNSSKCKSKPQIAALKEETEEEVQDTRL

For `CCOc1ccc2nc(NC(=O)C3CCCCC3)sc2c1` [compound 1], the “% Activity” value was “++ (“++” means between 25% to 100%)” and the EC50 was 10 to 25 µM.

With `Cc1ccc(-c2csc(NC(=O)c3ccccc3)n2)c(C)c1` [compound 2] the “% Activity” value was “+++ (“+++” means >100%)” and the EC50 was < 10 µM.

For `CCCCC(=O)Nc1nc(-c2cc(C)ccc2C)cs1` [compound 3], the “% Activity” value was “++ (“++” means between 25% to 100%)” and the EC50 was 10 to 25 µM.

With `COc1ccccc1-c1csc(NC(=O)c2ccc(C)cc2)n1` [compound 4] the “% Activity” value was “++ (“++” means between 25% to 100%)” and the EC50 was < 10 µM.

`COc1ccccc1-c1csc(NC(=O)c2cccc(C)c2)n1` [compound 5] was tested, and the “% Activity” value was “++ (“++” means between 25% to 100%)” and the EC50 was 10 to 25 µM.

`COc1ccc(C(=O)Nc2nc(-c3ccccc3OC)cs2)cc1` [compound 6] was tested, and the “% Activity” value was “++ (“++” means between 25% to 100%)” and the EC50 was 10 to 25 µM.

For `COc1cccc(C(=O)Nc2nc(-c3ccccc3OC)cs2)c1` [compound 7], the “% Activity” value was “+++ (“+++” means >100%)” and the EC50 was 10 to 25 µM.

In the case of `O=C(Nc1nc2c(s1)CCCC2)c1cccc(Br)c1` [compound 8], the “% Activity” value is reported as “+++ (“+++” means >100%)” and the EC50 is reported as < 10 µM.

In the case of `O=C(Nc1nc(-c2cccs2)cs1)c1cccc(Br)c1` [compound 9], the “% Activity” value is reported as “++ (“++” means between 25% to 100%)” and the EC50 is reported as < 10 µM.

`CCc1ccc(C(=O)Nc2nc3ccccc3s2)cc1` [compound 10] was tested, and the “% Activity” value was “+++ (“+++” means >100%)” and the EC50 was 10 to 25 µM.

`CCCc1ccc(C(=O)Nc2nc3ccccc3s2)cc1` [compound 11] was tested, and the “% Activity” value was “+++ (“+++” means >100%)” and the EC50 was 10 to 25 µM.

`CCCCc1ccc(C(=O)Nc2nc3ccccc3s2)cc1` [compound 12] was tested, and the “% Activity” value was “+++ (“+++” means >100%)” and the EC50 was < 10 µM.

`COc1ccc(-c2ccc(C(=O)Nc3nccs3)cc2)cc1` [compound 13] was tested, and the “% Activity” value was “++ (“++” means between 25% to 100%)” and the EC50 was < 10 µM.

For `COc1ccc(-c2ccc(C(=O)Nc3nc4ccccc4s3)cc2)cc1` [compound 14], the “% Activity” value was “++ (“++” means between 25% to 100%)” and the EC50 was < 10 µM.

In the case of `COc1ccc(-c2ccc(C(=O)Nc3nc4ccc(OC)cc4s3)cc2)cc1` [compound 15], the “% Activity” value is reported as “++ (“++” means between 25% to 100%)” and the EC50 is reported as < 10 µM.

For `CCCCc1ccc(C(=O)Nc2nccs2)cc1` [compound 16], the “% Activity” value was “+++ (“+++” means >100%)” and the EC50 was < 10 µM.

For `O=C(Nc1nc(-c2ccccc2)cs1)C12CC3CC(CC(C3)C1)C2` [compound 17], the “% Activity” value was “++ (“++” means between 25% to 100%)” and the EC50 was < 10 µM.

`O=C(Nc1ncc(-c2ccccc2)s1)c1ccccc1` [compound 18] was tested, and the “% Activity” value was “++ (“++” means between 25% to 100%)” and the EC50 was 10 to 25 µM.

With `O=C(Nc1ncc(Cc2ccccc2Cl)s1)c1ccccc1Cl` [compound 19] the “% Activity” value was “++ (“++” means between 25% to 100%)” and the EC50 was 10 to 25 µM.

With `O=C(O)CSCC(=O)Nc1nc(-c2ccccc2)c(-c2ccccc2)s1` [compound 20] the “% Activity” value was “++ (“++” means between 25% to 100%)” and the EC50 was 10 to 25 µM.

For `O=C(Nc1nc(-c2ccccc2)cs1)c1ccccc1` [compound 21], the “% Activity” value was “++ (“++” means between 25% to 100%)” and the EC50 was 10 to 25 µM.

In the case of `O=C(Nc1ncc(Cc2cccc(Cl)c2Cl)s1)C1CC1` [compound 22], the “% Activity” value is reported as “++ (“++” means between 25% to 100%)” and the EC50 is reported as 10 to 25 µM.

With `O=C(Nc1ncc(Cc2cccc(Cl)c2)s1)c1ccccc1` [compound 23] the “% Activity” value was “++ (“++” means between 25% to 100%)” and the EC50 was < 10 µM.

In the case of `CCC(C(=O)Nc1nc2ccc(C)cc2s1)c1ccccc1` (stereo not shown) [compound 24], the “% Activity” value is reported as “+++ (“+++” means >100%)” and the EC50 is reported as 10 to 25 µM.

In the case of `O=C(Nc1ncc(Cc2ccccc2)s1)C(c1ccccc1)c1ccccc1` [compound 25], the “% Activity” value is reported as “++ (“++” means between 25% to 100%)” and the EC50 is reported as < 10 µM.

For `O=C(Nc1ncc(Cc2ccccc2Cl)s1)c1cccc2ccccc12` [compound 26], the “% Activity” value was “++ (“++” means between 25% to 100%)” and the EC50 was 10 to 25 µM.

`COc1ccc(Cc2cnc(NC(=O)C(c3ccccc3)c3ccccc3)s2)cc1` [compound 27] was tested, and the “% Activity” value was “++ (“++” means between 25% to 100%)” and the EC50 was < 10 µM.

With `O=C(Nc1ncc(Cc2ccccc2Cl)s1)c1ccccc1` [compound 28] the “% Activity” value was “++ (“++” means between 25% to 100%)” and the EC50 was 10 to 25 µM.

`O=C(Nc1ncc(Cc2ccccc2Cl)s1)C1CCCCC1` [compound 29] was tested, and the “% Activity” value was “++ (“++” means between 25% to 100%)” and the EC50 was < 10 µM.

`O=C(Nc1ncc(Cc2cc(Cl)ccc2Cl)s1)C1CCCCC1` [compound 30] was tested, and the “% Activity” value was “+++ (“+++” means >100%)” and the EC50 was < 10 µM.

`O=C(Cc1ccccc1)Nc1ncc(Cc2cccc(Cl)c2)s1` [compound 31] was tested, and the “% Activity” value was “++ (“++” means between 25% to 100%)” and the EC50 was < 10 µM.

For `O=C(Cc1ccccc1)Nc1ncc(Cc2ccccc2)s1` [compound 32], the “% Activity” value was “++ (“++” means between 25% to 100%)” and the EC50 was 10 to 25 µM.

`O=C(Nc1ncc(Cc2ccc(Cl)cc2)s1)c1ccccc1Cl` [compound 33] was tested, and the “% Activity” value was “++ (“++” means between 25% to 100%)” and the EC50 was 10 to 25 µM.

With `CC(C)C(C(=O)Nc1nc(-c2ccncc2)cs1)c1ccc(F)cc1F` (stereo not shown) [compound 34] the “% Activity” value was “++ (“++” means between 25% to 100%)” and the EC50 was 10 to 25 µM.

With `CC(C)C(C(=O)Nc1nc(-c2ccncc2)cs1)c1ccccc1` (stereo not shown) [compound 35] the “% Activity” value was “++ (“++” means between 25% to 100%)” and the EC50 was 10 to 25 µM.

`N#CCC(=O)Nc1ncc(Cc2cccc(Cl)c2)s1` [compound 36] was tested, and the “% Activity” value was “++ (“++” means between 25% to 100%)” and the EC50 was 10 to 25 µM.

`O=C(Nc1ncc(Cc2ccccc2Cl)s1)C(c1ccccc1)c1ccccc1` [compound 37] was tested, and the “% Activity” value was “+++ (“+++” means >100%)” and the EC50 was < 10 µM.

`O=C(Nc1ncc(Cc2ccc(Cl)cc2)s1)C(c1ccccc1)c1ccccc1` [compound 38] was tested, and the “% Activity” value was “++ (“++” means between 25% to 100%)” and the EC50 was < 10 µM.

For `Cc1ccc(C(=O)Nc2nc(-c3ccc(C)cc3)c(-c3ccccc3)s2)cc1` [compound 39], the “% Activity” value was “+++ (“+++” means >100%)” and the EC50 was < 10 µM.

In the case of `Cc1ccccc1C(=O)Nc1nc2c(C)cccc2s1` [compound 40], the “% Activity” value is reported as “++ (“++” means between 25% to 100%)” and the EC50 is reported as < 10 µM.

For `Cc1cccc2sc(NC(=O)c3ccccc3Cl)nc12` [compound 41], the “% Activity” value was “++ (“++” means between 25% to 100%)” and the EC50 was < 10 µM.

In the case of `Cc1cccc2sc(NC(=O)c3cccc(Br)c3)nc12` [compound 42], the “% Activity” value is reported as “++ (“++” means between 25% to 100%)” and the EC50 is reported as < 10 µM.

For `O=C(Nc1nc(-c2ccc(Br)cc2)cs1)c1cccc(Cl)c1` [compound 43], the “% Activity” value was “++ (“++” means between 25% to 100%)” and the EC50 was < 10 µM.

For `Cc1ccc(C(=O)Nc2nc(-c3ccccc3)c(C)s2)cc1` [compound 44], the “% Activity” value was “+++ (“+++” means >100%)” and the EC50 was 10 to 25 µM.

`Cc1ccc(-c2nc(NC(=O)c3ccc(C#N)cc3)sc2-c2ccccc2)cc1` [compound 45] was tested, and the “% Activity” value was “++ (“++” means between 25% to 100%)” and the EC50 was 10 to 25 µM.

In the case of `O=C(Cc1ccccc1)Nc1nc(-c2cccc3ccccc23)cs1` [compound 46], the “% Activity” value is reported as “++ (“++” means between 25% to 100%)” and the EC50 is reported as < 10 µM.

With `Cc1ccc(C(=O)Nc2nc(-c3ccc(C)cc3)cs2)cc1` [compound 47] the “% Activity” value was “++ (“++” means between 25% to 100%)” and the EC50 was 10 to 25 µM.
